# Reference: patent US20260262643A1, “HERBICIDAL BENZOXAZINES” (FMC CORPORATION, priority 2022, published 2026)
# What was measured:
# green foxtail [1] = assay: Test C preemergence; format: in vivo, Setaria viridis; settings: Preemergence, 1000 g ai/ha; visual rating after 10 days, 0 to 100 scale (0 no effect, 100 complete control)
# Text: (§1) Seeds of plant species selected from barnyardgrass (Echinochloa crusgalli), blackgrass (Alopecurus myosuroides), corn (Zea mays), foxtail, giant (giant foxtail, Setaria faberi), green foxtail (Setaria viridis), goosegrass (Eleusine indica), kochia (Bassia scoparia), oat, wild (wild oat, Avena fatua), pigweed, palmer (palmer amaranth, palmer pigweed, Amaranthus palmeri), Pigweed, Redroot (redroot pigweed, Amaranthus retroflexus), ragweed (common ragweed, Ambrosia artemisiifolia), ryegrass, Italian ([…] ryegrass, Lolium multiflorum), soybean (Glycine max), and wheat (Triticum aestivum) were planted into a blend of loam soil and sand and treated preemergence with a directed soil spray using test chemicals formulated in a non-phytotoxic solvent mixture which included a surfactant. At the same time, plants selected from these crops and weed species and also galium (catchweed bedstraw, Galium aparine) and horseweed (Erigeron canadensis) were planted in pots containing the same blend of loam soil and sand and treated with postemergence applications of test chemicals formulated in the same manner. Plants ranged in height from 2 to 10 cm and were in the one- to two-leaf stage for the postemergence treatment. Treated plants and untreated controls were maintained in a greenhouse for 10 days, after which time all treated plants were compared to untreated controls and visually evaluated for injury. Plant response ratings, summarized in Table C, are based on a 0 to 100 scale where 0 is no effect and 100 is complete control. A dash (-) response means no test result.
# barnyardgrass [2] = assay: Test C preemergence; format: in vivo, Echinochloa crusgalli; settings: Preemergence, 1000 g ai/ha; visual rating after 10 days, 0 to 100 scale (0 no effect, 100 complete control)
# Text: as §1
# barnyardgrass [3] = assay: Test C postemergence; format: in vivo, Echinochloa crusgalli; settings: Postemergence, 1000 g ai/ha
# Text: as §1
# ragweed [4] = assay: Test C postemergence; format: in vivo, Ambrosia artemisiifolia; settings: Postemergence, 1000 g ai/ha
# Text: as §1
# kochia [5] = assay: Test C preemergence; format: in vivo, Bassia scoparia; settings: Preemergence, 1000 g ai/ha; visual rating after 10 days, 0 to 100 scale (0 no effect, 100 complete control)
# Text: as §1
# blackgrass [6] = assay: Test C postemergence; format: in vivo, Alopecurus myosuroides; settings: Postemergence, 1000 g ai/ha
# Text: as §1
# green foxtail [7] = assay: Test C postemergence; format: in vivo, Setaria viridis; settings: Postemergence, 1000 g ai/ha
# Text: as §1
# kochia [8] = assay: Test C postemergence; format: in vivo, Bassia scoparia; settings: Postemergence, 1000 g ai/ha
# Text: as §1
# horseweed = assay: Test C postemergence; format: in vivo, Erigeron canadensis; settings: Postemergence, 1000 g ai/ha
# Text: as §1
# ragweed [9] = assay: Test C preemergence; format: in vivo, Ambrosia artemisiifolia; settings: Preemergence, 1000 g ai/ha; visual rating after 10 days, 0 to 100 scale (0 no effect, 100 complete control)
# Text: as §1
# ryegrass, Italian [10] = assay: Test C preemergence; format: in vivo, Lolium multiflorum; settings: Preemergence, 1000 g ai/ha; visual rating after 10 days, 0 to 100 scale (0 no effect, 100 complete control)
# Text: as §1
# ryegrass, Italian [11] = assay: Test C postemergence; format: in vivo, Lolium multiflorum; settings: Postemergence, 1000 g ai/ha
# Text: as §1
# pigweed, palmer [12] = assay: Test C preemergence; format: in vivo, Amaranthus palmeri; settings: Preemergence, 1000 g ai/ha; visual rating after 10 days, 0 to 100 scale (0 no effect, 100 complete control)
# Text: as §1
# pigweed, palmer [13] = assay: Test C postemergence; format: in vivo, Amaranthus palmeri; settings: Postemergence, 1000 g ai/ha
# Text: as §1
# blackgrass [14] = assay: Test C preemergence; format: in vivo, Alopecurus myosuroides; settings: Preemergence, 1000 g ai/ha; visual rating after 10 days, 0 to 100 scale (0 no effect, 100 complete control)
# Text: as §1
# galium = assay: Test C postemergence; format: in vivo, Galium aparine; settings: Postemergence, 1000 g ai/ha
# Text: as §1
# [15] = 0 to 100 scale, 0 no effect, 100 complete control
# [16] = 10 days, visual 0 to 100 scale (0 no effect, 100 complete control)
Compound,"Plant response rating, Foxtail, Green (green foxtail [1])","Plant response rating, Barnyardgrass (barnyardgrass [2])","Plant response rating, Barnyardgrass (barnyardgrass [3]; [15])","Plant response rating, Ragweed (ragweed [4]; [15])","Plant response rating, Kochia (kochia [5])","Plant response rating, Blackgrass (blackgrass [6]; [15])","Plant response rating, Foxtail, Green (green foxtail [7]; [15])","Plant response rating, Ragweed (ragweed [9])","Plant response rating, Ryegrass, Italian (ryegrass, Italian [10])","Plant response rating, Pigweed, Palmer (pigweed, palmer [12])","Plant response rating, Blackgrass (blackgrass [14])","Plant response rating, Barnyardgrass (barnyardgrass [3]; [16])","Plant response rating, Ragweed (ragweed [4]; [16])","Plant response rating, Blackgrass (blackgrass [6]; [16])","Plant response rating, Foxtail, Green (green foxtail [7]; [16])","Plant response rating, Kochia (kochia [8]; [16])","Plant response rating, Horseweed (horseweed; [16])","Plant response rating, Ryegrass, Italian (ryegrass, Italian [11]; [16])","Plant response rating, Pigweed, Palmer (pigweed, palmer [13]; [16])","Plant response rating, Galium (galium; [16])",other results
Cc1ccc(-c2cccc(C(=O)N3C[C@H](C)Oc4c(Cl)cccc43)c2)o1 [Compound 204],0,0,0,20,20,0,0,0,40,10,0,,,,,,,,,,"Plant response rating, Kochia (kochia [8]; [15]): 0; Plant response rating, Horseweed (horseweed; [15]): 0; Plant response rating, Ryegrass, Italian (ryegrass, Italian [11]; [15]): 0; Plant response rating, Pigweed, Palmer (pigweed, palmer [13]; [15]): 10; Plant response rating, Galium (galium; [15]): 50"
Cc1cccc2c1O[C@@H](C)CN2C(=O)c1cccc(-n2cncc2Br)c1 [Compound 297],0,0,,,0,,,0,0,0,0,0,0,0,0,30,20,0,0,0,
C[C@H]1CN(C(=O)c2cccc(-c3ccc(Cl)nc3)c2)c2cccc(Cl)c2O1 [Compound 383],20,0,,,0,,,0,0,10,0,10,0,10,0,50,0,0,50,0,
Cc1cc(-c2cccc(C(=O)N3C[C@H](C)Oc4c(Cl)cccc43)c2)sn1 [Compound 389],100,70,,,90,,,20,60,70,30,70,30,10,70,80,0,0,90,90,
C[C@H]1CN(C(=O)c2cccc(N3CCOCC3)c2)c2cccc(Cl)c2O1 [Compound 166],0,0,0,0,0,0,0,0,0,0,0,,,,,,,,,,"Plant response rating, Kochia (kochia [8]; [15]): 0; Plant response rating, Horseweed (horseweed; [15]): 0; Plant response rating, Ryegrass, Italian (ryegrass, Italian [11]; [15]): 0; Plant response rating, Pigweed, Palmer (pigweed, palmer [13]; [15]): 10; Plant response rating, Galium (galium; [15]): 20"
